Measurements reported in US20120121679A1, “VIRICIDAL AND MICROBICIDAL COMPOSITIONS AND USES THEREOF” (University of Georgia Research Foundation, Inc., priority 2009, published 2012).
Where two headings read alike, the source gives them in different places.

How the values were obtained:
[1] = tested on: yeast species; assay: Effect of levulinic acids plus SDS at 21° C. on various yeast species
[2] = tested on: Feline Calicivirus (FCV); assay: Inactivation of FCV by levulinic acid plus SDS in solution, plaque assay; conditions: 21° C., 1 min
[3] = tested on: Murine norovirus (MNV-1); assay: Inactivation of MNV-1 by levulinic acid plus SDS in solution, plaque assay; conditions: 21° C., 1 min
[4] = tested on: S. enteritidis; assay: Reduction of S. enteritidis in water treated with organic acids and SDS; type: cell-based, Salmonella enteritidis
[5] = Candida magnoliae, inoculum […] 10^8 CFU/ml
[6] = Debaryomyces hansenii, inoculum […] 10^7 CFU/ml
[7] = Geotrichum candidum, inoculum […] 10^7 CFU/ml
[8] = Saccharomyces cerevisiae, inoculum […] 10^7 CFU/ml
[9] = Zygosaccharomyces bailii, inoculum […] 10^7 CFU/ml

With `CCCCCCCCCCCCOS(=O)(=O)[O-].[Na+]` [1.0% SDS] the “Yeast counts at 2 min” value [1, 5] was 3.3 log CFU/ml, the “Yeast counts at 5 min” value [1, 5] was 3.2 log CFU/ml and the “Yeast counts at 20 min” value [1, 5] was 2.7 log CFU/ml. For the same compound, the “Yeast counts at 30 min” value [1, 5] was 3.0 log CFU/ml, the “Yeast counts at 60 min” value [1, 5] was 3.1 log CFU/ml and the “Yeast counts at 2 min” value [1, 6] was 4.1 log CFU/ml. The “Yeast counts at 5 min” value [1, 6] was 4.5 log CFU/ml, the “Yeast counts at 20 min” value [1, 6] was 4.5 log CFU/ml and the “Yeast counts at 30 min” value [1, 6] was 4.5 log CFU/ml. For the same compound, the “Yeast counts at 60 min” value [1, 6] was 4.4 log CFU/ml, the “Yeast counts at 2 min” value [1, 7] was 3.3 log CFU/ml and the “Yeast counts at 5 min” value [1, 7] was 3.5 log CFU/ml. For the same compound, the “Yeast counts at 20 min” value [1, 7] was 3.5 log CFU/ml, the “Yeast counts at 30 min” value [1, 7] was 3.4 log CFU/ml and the “Yeast counts at 60 min” value [1, 7] was 3.3 log CFU/ml. For the same compound, the “Yeast counts at 2 min” value [1, 8] was 2.6 log CFU/ml, the “Yeast counts at 5 min” value [1, 8] was 2.3 log CFU/ml and the “Yeast counts at 20 min” value [1, 8] was 2.7 log CFU/ml. The “Yeast counts at 30 min” value [1, 8] was 2.3 log CFU/ml, the “Yeast counts at 60 min” value [1, 8] was 2.4 log CFU/ml and the “Yeast counts at 2 min” value [1, 9] was 4.6 log CFU/ml. For the same compound, the “Yeast counts at 5 min” value [1, 9] was 4.6 log CFU/ml, the “Yeast counts at 20 min” value [1, 9] was 4.5 log CFU/ml and the “Yeast counts at 30 min” value [1, 9] was 4.5 log CFU/ml. For the same compound, the “Yeast counts at 60 min” value [1, 9] was 4.4 log CFU/ml.
In the case of `CCCCCCCCCCCCOS(=O)(=O)[O-].[Na+]` [0.5% SDS, sodium dodecyl sulfate], the “Log Reduction PFU/ml (standard deviation), FCV” value ([2]; sulfate) was −0.09 (±0.27) log PFU/ml and the “Log Reduction PFU/ml (standard deviation), MNV-1” value ([3]; sulfate) was 0.13 (±0.20) log PFU/ml.
For `CC(=O)CCC(=O)O` [1.0% levulinic acid, levulinic acid], the “Salmonella reduction in water” value ([4]; within 30 minutes, listed as 1% by weight levulinic acid) was ≤ 1 log CFU/ml, the “Log Reduction PFU/ml (standard deviation), FCV” value ([2]; listed as 1% Levulinic acid) was 0.32 (±0.19) log PFU/ml and the “Log Reduction PFU/ml (standard deviation), MNV-1” value ([3]; listed as 1% Levulinic acid) was −0.04 (±0.23) log PFU/ml.
`CCCCCCCCCCCCOS(=O)(=O)[O-].[Na+]` [1% SDS, sodium dodecyl sulfate] was tested, and the “Log Reduction PFU/ml (standard deviation), FCV” value ([2]; sulfate) was −0.05 (±0.18) log PFU/ml and the “Log Reduction PFU/ml (standard deviation), MNV-1” value ([3]; sulfate) was 0.03 (±0.12) log PFU/ml.
For `CC(=O)CCC(=O)O` [2.0% levulinic acids], the “Yeast counts at 2 min” value [1, 5] was 5.9 log CFU/ml, the “Yeast counts at 5 min” value [1, 5] was 5.9 log CFU/ml and the “Yeast counts at 20 min” value [1, 5] was 6.0 log CFU/ml. For the same compound, the “Yeast counts at 30 min” value [1, 5] was 5.9 log CFU/ml and the “Yeast counts at 60 min” value [1, 5] was 5.8 log CFU/ml.
For `CC(=O)O` [0.5% acetic acid, acetic acid], the “Salmonella reduction in water” value [4] was 0.7 log CFU/ml.
